Laboratory results: patent US20260248881A1, “PHARMACEUTICAL COMPOSITION COMPRISING FOXM1 INHIBITOR AND IMMUNE CHECKPOINT INHIBITOR FOR PREVENTING OR TREATING CANCER” (National Cancer Center, priority 2022, published 2026)

Experiments:
FOXM1 and PD-L1 = experiment: Immunoblotting of FOXM1 and PD-L1 in human colorectal cancer cell lines; format: cell-based; settings: 5 μM TST; HCT8, HCT116, and SW480
Procedure: Human colorectal cancer cell lines (HCT116, HCT8, and SW480) and human primary coronary artery smooth muscle cells (SMCs) were purchased from the American Type Culture Collection (Manassas, VA, USA), and a MC38 mouse colorectal adenocarcinoma cell line was provided by Dr. Beom-Kyu Choi (National Cancer Center, Goyang, Republic of Korea). MC38 cells were cultured in Dulbecco's modified Eagle's medium (DMEM) supplemented with 10% FBS and 1% penicillin/streptomycin. SW480 and HCT8 cells were cultured in Roswell Park Memorial Institute (RPMI) medium supplemented with 10% FBS and 1% penicillin/streptomycin. HCT116 cells were maintained in McCoy's 5A medium supplemented with 10% FBS and 1% penicillin/streptomycin. Cells were maintained at 37° C. in a humidified incubator with 5% CO2.
For immunoblotting analysis, protein concentrations were measured using a bicinchoninic acid kit (Cat. 23225; Thermo Fisher Scientific, Carlsbad, CA, USA). Proteins were separated by SDS-PAGE electrophoresis. […] The appropriate secondary antibodies conjugated to horseradish peroxidase were bound to the washed membrane, and protein bands were detected using a chemiluminescence kit (Thermo Fisher Scientific, Carlsbad, CA, USA).

CD274 promoter = experiment: Dual-luciferase assay with CD274 promoter-luciferase construct; format: cell-based, human; settings: TST in the presence of IFNγ
Excerpt: The pGL3 plasmid containing a 2 kb promoter of CD274 (#107003; Addgene, Watertown, MA, USA) was kindly provided by Julian Downward lab (Coelho M A, de Carne Trecesson S, Rana S, Zecchin D, Moore C, Molina-Arcas M, East P, Spencer-Dene B, Nye E, Barnouin K, Snijders A P, Lai W S, Blackshear P J, Downward J, Immunity 2017, 47, 1083.). H1299 and PC9 cells were co-transfected with a pGL3 2 kb promoter. Cells containing CD274 or control pGL3-basic plasmid and pGL4.70 hRluc Renilla luciferase vector (Promega, Madison, WI, USA) were transfected with siFOXM1 or treated with TST in the presence of interferon-gamma (IFNγ). Cells were harvested 48 hours after transfection, and a dual luciferase assay was performed to the according manufacturer's protocol (#E1910; Promega). At least four independent biological replicates were examined to obtain reliable results.

[1] = system: human primary coronary artery smooth muscle cells (SMCs); experiment: Cell viability assay (WST-1), SMC normal cells; format: cell-based; settings: 48 hours
Procedure: MC38 and SMC were cultured at a density of 3×10^3 cells/well in 96-well plates. The cells were treated with various concentrations of TST dissolved in the medium for 48 hours, then WST-1 reagent (MK400; Takara) was added at a concentration of 10 μL/well and cultured for 1 hour. The absorbance was measured at 450 nm for further analysis.

[2] = system: Lewis lung carcinoma LLC-1; experiment: Syngeneic tumor model using murine lung cancer cells LLC-1
Procedure: Lewis lung carcinoma LLC-1, murine lung cancer cells (5×10^5), were implanted subcutaneously in 5-week-old C57BL/6N mice (n=6 per group) (OrientBio, Seoul, Korea) and left for 10 days to form tumors with a volume of approximately 150 mm^3. […] Tumor volumes and body weights of the mice were measured every other day. On day 9, all the mice were sacrificed, and tumor tissues were collected, fixed in formalin, embedded in paraffin, and sectioned for IHC.
CD3^+ T-cells were detected (ab16669, Cambridge, UK) by anti-CD3 antibody Abcam, according to manufacturer's manuals. The positive signal intensity of CD3^+ T-cells was analyzed by using computer image analysis with ImageJ software (LOCI, University of Wisconsin), and the intensity of CD3^+ signals was calculated as a relative ratio of total positive area/total surface area. Pathological images were obtained from an Aperio VERSA slide scanning system (Leica Biosystems Imaging, Vista, CA, USA). At 100× magnification, three independent and intact computerized microscopic fields of each tissue sample were captured by Aperio Imagescope software (Leica Biosystems Imaging, Vista, CA, USA) and were used for analysis of signal intensity of CD3^+ cells in while microscopic fields.
The in vivo synergy between TST and anti-4-1BB antibody-treated groups was determined by calculating a coefficient of drug interaction (CDI), with CDI values<1, <0.7, =1, and >1 indicating synergy, significant synergy, additivity, and antagonism, respectively.
Lewis lung carcinoma (LLC-1) mouse lung cancer cells (5×10^5) were injected subcutaneously into C57BL/6N mice (n=6 per group) and allowed to form tumors with a volume of 150 mm^3 for 10 days.

[3] = cited from earlier work
CD274 (PD-L1) = experiment: Semi-quantitative PCR of PD-L1 (CD274) transcript in H1299 and PC9 cells; format: cell-based, human; settings: TST in the presence of IFN-γ
Procedure: H1299 and PC9 cells purchased from ATCC (Manassas, VA, USA) were cultured in RPMI-1640 medium (#10-040-CV; Corning, New York, NY, USA) supplemented with 10% […] (#35-010-CV; Corning) and penicillin-streptomycin antibiotic cocktail (#15240062; Thermo Fisher Scientific, Waltham, MA, USA) at 37° C. and 5% CO2.
H1299 and PC9 LUAD cells were transfected with 5 nM negative control (NC) or FOXM1 siRNA (siFOXM1) (QIAGEN, Hilden, Germany) using Lipofectamine RNAiMAX (#13778150; Thermo Fisher Scientific). Human FOXM1 isoform b (pFLAG-FOXM1)-expressing plasmid or empty vector (pFLAG-CMV; mock) was transfected into H1299 and PC9 cells using Lipofectamine 2000 reagent (#11668019; Thermo Fisher Scientific) according to the manufacturer's instructions.
Total RNA was extracted and purified using the RNeasy kit (#74004; QIAGEN) according to the manufacturer's protocol. Reverse transcription of mRNA was performed using a PrimeScript 1st Strand CDNA Synthesis Kit (#6110A; TaKaRa Bio, Otsu, Japan). Quantitative PCR was performed using primers specific for the CD274 and FOXM1 genes designed using Primer 3 software. A β-actin gene was used as an internal control group to normalize target gene expression.

Question: With thiostrepton [TST] as the substance, how does the “FOXM1 and PD-L1 levels” value (FOXM1 and PD-L1) read?
Answer: The value was “significantly decreased both FOXM1 and PD-L1 levels”.

Question: What about the “decrease in relative luciferase activity (CD274 promoter activity)” value (CD274 promoter; H1299) of the same substance?
Answer: The value was 53%.

Question: What about the “decrease in relative luciferase activity (CD274 promoter activity)” value (CD274 promoter; PC9) of the same substance?
Answer: The value was 66%.

Question: What about the “in vitro cytotoxicity on SMC normal cells” value [1] of the same substance?
Answer: Its value is “no significant apoptotic cell death”.

Question: What about the “number of apoptotic tumor cells (TUNEL), vs control group” value ([2]; day 9) of the same substance?
Answer: Its value is 2.46 fold.

Question: What about the “increase in CD3+ T cells in tumors, vs control group” value ([2]; immunohistochemical staining) of the same substance?
Answer: Its value is 1.32 fold.

Question: What about the tumor growth inhibition ([2]; treatment initiated at smaller tumor size (~80 mm^3), antibodies 0.2 mg/mouse) of the same substance?
Answer: The tumor growth inhibition was 63.1%.

Question: What about the “inhibition of tumor growth” value ([2]; tumors 150 mm^3 at start, TST 17 mg/kg, anti-4-1BB 0.2 mg/mouse, day 1, 3, 5, 7, vs control group) of the same substance?
Answer: The value was 48%.

Question: And the solubility in water [3]?
Answer: The solubility in water was “low solubility in water”.

Question: And the “PD-L1 mRNA expression” value (CD274 (PD-L1))?
Answer: The value was “concentration-dependent decrease”.
